# Measurements reported in patent publication US20110269759A1, “PYRIMIDINE COMPOUNDS AS DELTA OPIOID RECEPTOR MODULATORS” (priority 2009, published 2011).
# Where two headings read alike, the source gives them in different places.
# How the values were obtained:
# Delta Opioid Receptor = biological target: T1, Delta Opioid Receptor (Rattus norvegicus, UniProt P33533); experiment: Rat brain delta opioid receptor binding assay ([3H]DPDPE or [3H]naltrindole)
# T1 construct: the forebrains were homogenized in Tris buffer in a Teflon®-glass homogenizer; from tissue; host or cells: forebrain of male Wistar rats, particulate membrane preparation
# T1 sequence (P33533 whole entry): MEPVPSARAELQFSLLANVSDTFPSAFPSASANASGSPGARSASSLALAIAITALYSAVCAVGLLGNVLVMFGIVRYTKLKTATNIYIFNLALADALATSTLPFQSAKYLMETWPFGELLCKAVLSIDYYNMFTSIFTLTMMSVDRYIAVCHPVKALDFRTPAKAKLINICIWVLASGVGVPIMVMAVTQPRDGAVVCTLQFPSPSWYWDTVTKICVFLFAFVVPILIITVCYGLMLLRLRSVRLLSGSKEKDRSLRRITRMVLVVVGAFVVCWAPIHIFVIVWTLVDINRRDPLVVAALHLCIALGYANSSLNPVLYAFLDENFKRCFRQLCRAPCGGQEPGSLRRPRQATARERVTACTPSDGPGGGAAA
# Mu Opioid Receptor = biological target: T2, Mu Opioid Receptor (Rattus norvegicus, UniProt P33535); experiment: Rat brain mu opioid receptor binding assay ([3H]DAMGO)
# T2 construct: the forebrains were homogenized in Tris buffer in a Teflon®-glass homogenizer; from tissue; host or cells: forebrain of male Wistar rats, particulate membrane preparation
# T2 sequence (P33535 whole entry): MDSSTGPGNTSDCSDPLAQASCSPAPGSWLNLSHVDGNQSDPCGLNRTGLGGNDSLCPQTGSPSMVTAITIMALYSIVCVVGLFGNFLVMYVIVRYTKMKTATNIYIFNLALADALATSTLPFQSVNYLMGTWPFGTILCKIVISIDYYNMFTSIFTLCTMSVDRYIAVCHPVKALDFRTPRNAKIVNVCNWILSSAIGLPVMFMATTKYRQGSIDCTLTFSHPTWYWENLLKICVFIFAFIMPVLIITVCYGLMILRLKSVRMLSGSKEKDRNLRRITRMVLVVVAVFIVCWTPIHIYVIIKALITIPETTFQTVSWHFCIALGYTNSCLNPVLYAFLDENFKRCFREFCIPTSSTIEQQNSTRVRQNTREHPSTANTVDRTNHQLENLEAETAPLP
# δ-opioid receptor = δ-opioid receptor (Mus musculus, UniProt P32300); experiment: [35S]GTPγS δ-opioid receptor functional assay (EC50, relative efficacy, % inhibition); assay type: biochemical; set-up: NG108-15 cell membranes were purchased from Applied Cell Sciences (Rockville, Md.); settings: for inhibition at 10 µM: read-out: GTPγS δ-opioid receptor % Inh @10 μM
# δ-opioid receptor, sequence (P32300 whole entry): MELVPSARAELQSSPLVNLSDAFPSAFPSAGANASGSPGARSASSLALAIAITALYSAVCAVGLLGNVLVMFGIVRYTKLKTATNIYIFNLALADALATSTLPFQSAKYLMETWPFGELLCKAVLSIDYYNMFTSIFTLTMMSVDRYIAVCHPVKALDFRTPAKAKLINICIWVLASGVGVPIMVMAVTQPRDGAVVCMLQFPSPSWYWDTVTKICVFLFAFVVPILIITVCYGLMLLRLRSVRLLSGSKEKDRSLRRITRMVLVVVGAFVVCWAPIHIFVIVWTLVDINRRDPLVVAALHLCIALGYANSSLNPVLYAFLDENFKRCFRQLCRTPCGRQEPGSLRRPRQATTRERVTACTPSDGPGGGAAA
# [1] = rat forebrain membranes, 0.25 nM [3H]naltrindole, read-out: δ-binding (Naltrindole ligand) Ki
# [2] = rat forebrain membranes, ~4 nM [3H]DPDPE, read-out: δ-binding (DPDPE ligand) Ki
# [3] = rat forebrain membranes, ~0.8 nM [3H]DAMGO, read-out: μ-binding Ki
SMILES,Ki (Delta Opioid Receptor; [1]) [nM],Ki (Mu Opioid Receptor; [3]) [nM],also measured
COc1ccc(Oc2cc(CCc3ccccc3)ccc2NC[C@@H]2CCCN2)cc1 [Cpd 5],239,,
NC(=O)c1cccc(Oc2cc(-c3ccccc3)ccc2NC[C@@H]2CCCN2)c1 [Cpd 30],126,,Ki (Mu Opioid Receptor): 5800 nM; EC50 (δ-opioid receptor): 1020 nM; GTPγS δ-opioid receptor Rel Efficacy (δ-opioid receptor): 0.2668; inhibition at 10 µM (δ-opioid receptor): 36.5%
CCN(CC)C(=O)c1ccc(NC[C@@H]2CCCN2)c(Oc2ccccc2OC)c1 [Cpd 11],,,Ki (Delta Opioid Receptor; [2]): 105 nM; EC50 (δ-opioid receptor): 319 nM
CCN(CC)C(=O)c1cccc(Oc2cc(-c3ccccc3)ccc2NC[C@@H]2CCCN2)c1 [Cpd 34],310,,
"CNCCNc1ccc(Oc2ccc(OC)cc2)cc1Oc1ccc(OC)cc1 [Cpd 63, N-[2,4-Bis-(4-methoxy-phenoxy)-phenyl]-N′-methyl-ethane-1,2-diamine]",,,Ki (Delta Opioid Receptor): 23.7 nM; Ki (Mu Opioid Receptor; read-out: μ-binding Ki): > 10000 nM; inhibition at 10 µM (δ-opioid receptor): 26%
COc1ccc(Oc2cc(CCc3cccc(OC)c3)ccc2NC[C@@H]2CCCN2)cc1 [Cpd 4],210,,
"COc1ccc(Oc2cc(-c3ccccc3)ccc2N2CCNCC2)cc1 [Cpd 46, 1-[3-(4-Methoxy-phenoxy)biphenyl-4-yl]piperazine]",,,Ki (Delta Opioid Receptor): 79.7 nM; Ki (Mu Opioid Receptor; read-out: μ-binding Ki): > 10000 nM
COc1ccc(Oc2cc(-c3ccccc3)ccc2NC2CCNCC2)cc1 [Cpd 23],461,> 10000,
"CNCCN(CCNC)c1ccc(Oc2ccc(OC)cc2)cc1Oc1ccc(OC)cc1 [Cpd 64, N-[2,4-Bis-(4-methoxy-phenoxy)-phenyl]-N′-methyl-N-(2-methylamino-ethyl)-ethane-1,2-diamine]",,> 10000,Ki (Delta Opioid Receptor; [2]): 1540 nM
COc1ccc(Oc2ccc(NC3CCCNC3)c(Oc3ccc(OC)cc3)c2)cc1 (racemic) [Cpd 54],,,Ki (Delta Opioid Receptor; [2]): 492 nM; Ki (Mu Opioid Receptor): 9700 nM
Clc1ccc(Oc2cc(-c3ccccc3)ccc2NC[C@@H]2CCCN2)c(Cl)c1 [Cpd 22],698,,
COc1ccc(Oc2ccc(NCC3CNC3)c(Oc3ccc(OC)cc3)c2)cc1 [Cpd 58],,> 10000,Ki (Delta Opioid Receptor; [2]): 703 nM
"COc1ccc(Oc2cc(-c3ccc4ccccc4c3)ccc2NC[C@@H]2CCCN2)cc1 [Cpd 36, (S)-[2-(4-Methoxy-phenoxy)-4-naphthalen-2-yl-phenyl]-pyrrolidin-2-ylmethyl-amine]",290,> 10000,
COc1ccc(Oc2cc(-c3cncc(C)c3)ccc2NC[C@@H]2C[C@@H](F)CN2)cc1 [Cpd 28],,,Ki (Delta Opioid Receptor): 6.81 nM; Ki (Mu Opioid Receptor): 4670 nM; EC50 (δ-opioid receptor): 165 nM; GTPγS δ-opioid receptor Rel Efficacy (δ-opioid receptor): 0.8756
COc1ccc(Oc2ccc(NC3CN4CCC3CC4)c(Oc3ccc(OC)cc3)c2)cc1 (centres unmarked) [Cpd 60],,> 10000,Ki (Delta Opioid Receptor; [2]): 158 nM
"CCN(CC)C(=O)c1ccc(Oc2cc(-c3ccccc3)ccc2NC[C@@H]2CCCN2)cc1 [Cpd 33, (S)-N,N-Diethyl-4-{4-[(pyrrolidin-2-ylmethyl)-amino]-biphenyl-3-yloxy}-benzamide]",284,,Ki (Mu Opioid Receptor): 9300 nM
COc1ccc(Oc2cc(-c3cccc4ccccc34)ccc2NC[C@@H]2CCCN2)cc1 [Cpd 37],301,,
COc1ccc(Oc2cc(CCc3ccc(F)cc3)ccc2NC[C@@H]2CCCN2)cc1 [Cpd 6],684,,
COC(=O)c1ccc(Oc2cc(-c3ccccc3)ccc2NC[C@@H]2CCCN2)cc1 [Cpd 20],779,,
N#Cc1cccc(Oc2cc(-c3ccccc3)ccc2NC[C@@H]2CCCN2)c1 [Cpd 13],402,,
"CCN(CC)C(=O)c1cccc(CCc2ccc(NC[C@@H]3CCCN3)c(Oc3ccc(OC)cc3)c2)c1 [Cpd 8, (S)-N,N-Diethyl-3-(2-{3-(4-methoxy-phenoxy)-4-[(pyrrolidin-2-ylmethyl)-amino]-phenyl}-ethyl)-benzamide]",127,,Ki (Mu Opioid Receptor): 9000 nM
COC(=O)c1cccc(Oc2cc(-c3ccccc3)ccc2NC[C@@H]2CCCN2)c1 [Cpd 21],887,,

SMILES,Ki (Delta Opioid Receptor; [1]) [nM],Ki (Mu Opioid Receptor; [3]) [nM],also measured
"CCN(CC)C(=O)c1ccc(NC[C@@H]2CCCN2)c(Oc2ccccc2)c1 [Cpd 9, (S)-N,N-Diethyl-3-phenoxy-4-[(pyrrolidin-2-ylmethyl)-amino]-benzamide]",1020,> 10000,
Fc1ccc(Oc2cc(-c3ccccc3)ccc2NC[C@@H]2CCCN2)cc1 [Cpd 16],419,,
FC(F)(F)Oc1ccc(Oc2cc(-c3ccccc3)ccc2NC[C@@H]2CCCN2)cc1 [Cpd 17],1470,,
"COc1ccc(Oc2cc(-c3ccccc3)ccc2N2CCN(C)CC2)cc1 [Cpd 47, 1-[3-(4-Methoxy-phenoxy)biphenyl-4-yl]-4-methyl-piperazine]",2220,> 10000,
COc1ccc(Oc2cc(-c3ccsc3)ccc2NC[C@@H]2CCCN2)cc1 [Cpd 41],290,,
Clc1cccc(Cl)c1Oc1cc(-c2ccccc2)ccc1NC[C@@H]1CCCN1 [Cpd 18],108,,EC50 (δ-opioid receptor): 1040 nM; GTPγS δ-opioid receptor Rel Efficacy (δ-opioid receptor): 0.763; inhibition at 10 µM (δ-opioid receptor): 23.4%
"COc1ccc(Oc2cc(-c3noc(=O)[nH]3)ccc2NC[C@@H]2CCCN2)cc1 [Cpd 48, (S)-3-{3-(4-Methoxy-phenoxy)-4-[(pyrrolidin-2-ylmethyl)-amino]-phenyl}-4H-[1,2,4]oxadiazol-5-one]",,9700,Ki (Delta Opioid Receptor; [2]): 492 nM
COc1ccc(Oc2ccc(NC3CCNCC3)c(Oc3ccc(OC)cc3)c2)cc1 [Cpd 56],,> 10000,Ki (Delta Opioid Receptor; [2]): 1730 nM
COc1ccc(Oc2ccc(NC3CC4CCC(C3)N4)c(Oc3ccc(OC)cc3)c2)cc1 (centres unmarked) [Cpd 57],,> 10000,Ki (Delta Opioid Receptor; [2]): 1430 nM
c1ccc(Oc2cc(-c3ccccc3)ccc2NC[C@@H]2CCCN2)cc1 [Cpd 14],113,,
"NC(=O)c1ccc(Oc2cc(-c3ccccc3)ccc2NC[C@@H]2CCCN2)cc1 [Cpd 29, (S)-4-{4-[(Pyrrolidin-2-ylmethyl)-amino]-biphenyl-3-yloxy}-benzamide]",147,> 10000,
COc1cccc(Oc2cc(-c3ccccc3)ccc2NC[C@@H]2CCCN2)c1 [Cpd 15],289,,
"N#Cc1ccc(Oc2cc(-c3ccccc3)ccc2NC[C@@H]2CCCN2)cc1 [Cpd 12, (S)-4-{4-[(Pyrrolidin-2-ylmethyl)-amino]-biphenyl-3-yloxy}-benzonitrile]",996,> 10000,
COc1ccc(Oc2ccc(N(CC3CNC3)CC3CNC3)c(Oc3ccc(OC)cc3)c2)cc1 [Cpd 59],,> 10000,Ki (Delta Opioid Receptor; [2]): 2280 nM
"O=C(O)c1ccc(Oc2cc(-c3ccccc3)ccc2NC[C@@H]2CCCN2)cc1 [Cpd 31, (S)-4-{4-[(Pyrrolidin-2-ylmethyl)-amino]-biphenyl-3-yloxy}-benzoic acid]",7690,> 10000,
"COc1ccc(CCc2ccc(NC[C@@H]3CCCN3)c(Oc3ccc(OC)cc3)c2)cc1 [Cpd 3, (S)-{2-(4-Methoxy-phenoxy)-4-[2-(4-methoxy-phenyl)-ethyl]-phenyl}-pyrrolidin-2-ylmethyl-amine]",120,> 10000,
O=C(O)c1cccc(Oc2cc(-c3ccccc3)ccc2NC[C@@H]2CCCN2)c1 [Cpd 32],2670,,
COc1ccc(Oc2cc(CCc3cccc(F)c3)ccc2NC[C@@H]2CCCN2)cc1 [Cpd 7],229,,
COc1ccc(Oc2cc(-c3ccoc3)ccc2NC[C@@H]2CCCN2)cc1 [Cpd 40],205,,
COc1ccc(Oc2cc(-c3cncc(OC)c3)ccc2NC[C@@H]2C[C@@H](F)CN2)cc1 [Cpd 27],1000,,
COc1ccc(Oc2ccc(NC[C@@H](N)CO)c(Oc3ccc(OC)cc3)c2)cc1 [Cpd 55],,,Ki (Delta Opioid Receptor; [2]): 1370 nM
CNCCNc1ccc(-c2ccccc2)cc1Oc1ccc(OC)cc1 [Cpd 19],192,> 10000,
